Active and inactive are the calls of the source. The calls are words filed in the database; no cut-off is given here.

Series [1] can be described thus: Cytotoxicity against mouse RAW264.7 cells assessed as cell viability at 30 uM after 18 hrs by MTT assay relative to control. Type of series: cell-based. To be noted: read-out: Activity. (In general: Tetrazolium dyes change colour on reduction, which living cells bring about.)
The test system of series [2] is RAW264.7. In words: Cytotoxicity against mouse RAW264.7 cells assessed as reduction in cell viability at 30 uM after 1 hr by MTT assay. The note with it: raw264.7, 1 h. Type of series: cell-based.
The subject of series [3] is RAW264.7. In words: Anti-inflammatory activity in mouse RAW264.7 cells assessed as inhibition of LPS-induced ROS production at 30 uM measured after 4 hrs by H2DCFDA-AM probe based fluorescence assay. Type of series: functional, cell-based.
The test system of series [4] is RAW264.7. In words: Anti-inflammatory activity in mouse RAW264.7 cells assessed as inhibition of LPS-induced IL-1beta mRNA level at 30 uM preincubated for 30 mins followed by LPS stimulation measured after 4 hrs by RT-PCR method relative to control. Type of series: functional.
Series [5] deals with RAW264.7. Nature of the series: Anti-inflammatory activity in mouse RAW264.7 cells assessed as inhibition of LPS-induced NO production at 30 uM preincubated for 30 mins followed by LPS stimulation measured after 4 hrs by Griess assay relative to control. Format: functional.
Series [6] concerns RAW264.7. Nature of the series: Anti-inflammatory activity in mouse RAW264.7 cells assessed as inhibition of LPS-induced IL-6 mRNA level at 30 uM preincubated for 30 mins followed by LPS stimulation measured after 4 hrs by RT-PCR method relative to control. Type of series: functional.
Series [7] deals with RAW264.7. In words: Cytotoxicity against mouse RAW264.7 cells assessed as reduction in cell viability after 18 hrs by MTT assay. Type of series: cell-based. To be noted: raw264.7, 18 h.
Series [8] deals with RAW264.7. In words: Anti-inflammatory activity in mouse RAW264.7 cells assessed as inhibition of LPS-induced ROS production measured after 4 hrs by H2DCFDA-AM probe based fluorescence assay. Format: functional, cell-based. The note with it: for IC50: RAW264.7, 4 h.
The subject of series [9] is RAW264.7. In words: Anti-inflammatory activity in mouse RAW264.7 cells assessed as inhibition of LPS-induced ROS production at 1 to 10 uM measured after 4 hrs by H2DCFDA-AM probe based fluorescence assay. Format: functional, cell-based.
Series [10] deals with RAW264.7. Nature of the series: Cytotoxicity against mouse RAW264.7 cells assessed as reduction in cell viability at 30 uM after 18 hrs by MTT assay. Format: cell-based. To be noted: raw264.7, 18 h.
Series [11] relates to RAW264.7. Nature of the series: Cytotoxicity against mouse RAW264.7 cells assessed as reduction in cell viability at 30 to 50 uM after 18 hrs by MTT assay. Type of series: cell-based. To be noted: raw264.7, 18 h.
For series [12], the system named is RAW264.7. Nature of the series: Cytotoxicity against mouse RAW264.7 cells assessed as reduction in cell viability up to 30 uM after 18 hrs by MTT assay. The note with it: raw264.7, 18 h. Type of series: cell-based.

Turning to `Oc1ccc2cc1Oc1ccc(cc1)CC/C=C\C=C\C2`, in series [1], the viability at 18 h, 30 µM was below 60%. The figures for the Activity result in the series on RAW264.7 [2] and in the series with RAW264.7 [7] were “Non-Toxic” and “Dose-dependent effect”, respectively. For the same compound, the inhibition entry in the series on RAW264.7 [3], with RAW264.7 [4] and in the series with RAW264.7 [6] was “Active” in each case. In addition, in the series on RAW264.7 [5], the inhibition at 30 µM was above 65%. For the same compound, the IC50 in the series on RAW264.7 [8] was determined as 30 µM. Also, the inhibition result in the series with RAW264.7 [9] is “inactive”.
With `Cc1c(C)c2c(c(C)c1O)CCC(C)(C(=O)O)O2` (centres undefined) [TROLOX], the Activity entry in the series on RAW264.7 [10] was “Non-Toxic”. In the series on RAW264.7 [8], the inhibition entry is “Dose-dependent effect” and the IC50 is 30 µM.
In the case of `Oc1ccc2cc1Oc1ccc(cc1)CC/C=C\C(O)CC2` (centres undefined), in the series on RAW264.7 [3], the inhibition entry is “Active”. Further, the figures for the Activity entry in the series on RAW264.7 [10], in the series with RAW264.7 [11] and in the series on RAW264.7 [12] were “Non-Toxic”, “Toxic” and “Non-Toxic”, respectively. Moreover, the inhibition at 30 µM in the series on RAW264.7 [4] was 30 to 50%; with RAW264.7 [5], above 80%; with RAW264.7 [6], above 60%. Further, the IC50 in the series with RAW264.7 [8] was 30 to 50 µM.
As to `O=C1CCc2ccc(cc2)Oc2cc(ccc2O)CCCN1`, the inhibition entry with RAW264.7 [3] is “Active”. The Activity entry in the series with RAW264.7 [10], in the series with RAW264.7 [11] and in the series with RAW264.7 [12] was “Non-Toxic” each time. Further, the results for the inhibition at 30 µM in the series on RAW264.7 [4], with RAW264.7 [5] and with RAW264.7 [6] were 30 to 50%, 65% and above 60%, respectively. Besides, the IC50 in the series on RAW264.7 [8] lay in the range of 30 to 50 µM.
`COc1ccc(CCn2cc(CCc3ccc(O)cc3)nn2)cc1Br`: the Activity result with RAW264.7 [10] is reported as “Non-Toxic”.
Consider `COc1ccc2cc1Oc1ccc(cc1)C[C@H](N)C(=O)NCCC2`, for which the inhibition entry in the series with RAW264.7 [3] is “Active”. Moreover, the Activity entry with RAW264.7 [10], with RAW264.7 [11] and with RAW264.7 [12] was “Non-Toxic” each time. In addition, the inhibition at 30 µM is 30 to 50% in the series with RAW264.7 [4], above 80% in the series on RAW264.7 [5] and above 60% with RAW264.7 [6]. For the same compound, the IC50 with RAW264.7 [8] turned out to be 30 µM.
In the case of `COc1ccc(CCCNC(=O)[C@@H](N)Cc2ccc(O)cc2)cc1Br`, the inhibition result in the series on RAW264.7 [3] was “Active”. In addition, the Activity entry in the series on RAW264.7 [10], in the series with RAW264.7 [11] and with RAW264.7 [12] was “Non-Toxic” each time. Moreover, the inhibition at 30 µM with RAW264.7 [4] was 30 to 50%; with RAW264.7 [5], above 80%; in the series on RAW264.7 [6] it was above 60%. In the series with RAW264.7 [8], the IC50 came to 30 µM.
Take `COc1ccc(CCC(O)/C=C\CCc2ccc(O)cc2)cc1Br` (centres undefined): the figures for the Activity entry in the series with RAW264.7 [2] and with RAW264.7 [10] were “Non-Toxic” and “Toxic”, respectively. Besides, in the series on RAW264.7 [3], the inhibition result was “Active”.
As to `COc1ccc2cc1Oc1ccc(cc1)CC/C=C\C(O)CC2` (centres undefined), in the series on RAW264.7 [10], the Activity entry is “Non-Toxic”.
On to `Oc1ccc2cc1Oc1ccc(cc1)CCc1cn(nn1)CC2`, for which the Activity entry in the series with RAW264.7 [10] is “Non-Toxic”.
The same measure, in the same setting: the same measure for `COc1ccc2cc1Oc1ccc(cc1)CCC(=O)NCCC2`: “Non-Toxic”; for `O=C1N[C@H]2Cc3ccc(cc3)Oc3cc(ccc3O)CCCN1C2=O`: “Non-Toxic”.
On to `N[C@H]1Cc2ccc(cc2)Oc2cc(ccc2O)CCCNC1=O`, for which, in the series with RAW264.7 [3], the inhibition entry is “inactive”. In the series with RAW264.7 [10], the Activity entry is reported as “Non-Toxic”.
Take `COc1ccc(CCCNC(=O)CCc2ccc(O)cc2)cc1Br`: the inhibition result in the series with RAW264.7 [3] was “Active”. Further, the Activity result in the series on RAW264.7 [10] is “Non-Toxic”; with RAW264.7 [11] it was “Toxic”; with RAW264.7 [12] it was “Non-Toxic”. For the same compound, the inhibition at 30 µM is 30 to 50% with RAW264.7 [4], above 80% with RAW264.7 [5] and above 60% in the series on RAW264.7 [6]. Further, the IC50 in the series on RAW264.7 [8] lay in the range of 30 to 50 µM.
As to `COc1ccc2cc1Oc1ccc(cc1)C[C@@H]1NC(=O)N(CCC2)C1=O`, in the series with RAW264.7 [10], the Activity entry is “Non-Toxic”.
The same measure, in the same setting: the same measure for `COc1ccc2cc1Oc1ccc(cc1)CCc1cn(nn1)CC2`: “Non-Toxic”.

One may read the inhibition as the change of the read-out against control, counted positive when it falls. Broadly, the IC50 is the concentration needed to halve the response being measured.

Source of the values: ChEMBL document CHEMBL4251613, “Synthesis and biological evaluation of diarylheptanoids as potential antioxidant and anti-inflammatory agents” (Eur J Med Chem, 2018).
